Experiment: Circulating exposure at steady-state in patients
Type: in vivo, human

With `O=C(Nc1n[nH]c2ccc(Cc3cc(F)cc(F)c3)cc12)c1ccc(N2CCNCC2)cc1NC1CCOCC1` [M5] the “circulating M5 exposure as share of corresponding entrectinib exposure” value was 40%.
